Laboratory results published in PubChem BioAssay (NCI).
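Tested at 5 concentrations; 48 h exposure; 96-well plates; endpoints linearly interpolated, else capped at highest concentration. Abbreviation: GI50, concentration required for 50% inhibition of growth. TGI marks complete inhibition of growth.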

What was measured:
Experiment in all cases: inhibition of tumour cell growth, NCI panel, 48 h
MDA-MB-231 breast = system: MDA-MB-231 breast
SW-620 colon = system: SW-620 colon
HS 578T breast = system: HS 578T breast
SK-MEL-5 melanoma = system: SK-MEL-5 melanoma
NCI-H23 lung = system: NCI-H23 lung
HCT-15 colon = system: HCT-15 colon
OVCAR-5 ovarian = system: OVCAR-5 ovarian
SK-MEL-2 melanoma = system: SK-MEL-2 melanoma
COLO 205 colon = system: COLO 205 colon
MCF7 breast = system: MCF7 breast
OVCAR-4 ovarian = system: OVCAR-4 ovarian
SK-MEL-28 melanoma = system: SK-MEL-28 melanoma
DU-145 prostate = system: DU-145 prostate
SF-539 CNS = system: SF-539 CNS
786-0 renal = system: 786-0 renal
SF-295 CNS = system: SF-295 CNS
HL-60(TB) leukemia = system: HL-60(TB) leukemia
TK-10 renal = system: TK-10 renal
KM12 colon = system: KM12 colon
SR leukemia = system: SR leukemia
OVCAR-8 ovarian = system: OVCAR-8 ovarian
RXF 393 renal = system: RXF 393 renal
UO-31 renal = system: UO-31 renal
HCT-116 colon = system: HCT-116 colon
SK-OV-3 ovarian = system: SK-OV-3 ovarian
M14 melanoma = system: M14 melanoma
MOLT-4 leukemia = system: MOLT-4 leukemia
NCI-H522 lung = system: NCI-H522 lung
OVCAR-3 ovarian = system: OVCAR-3 ovarian
CAKI-1 renal = system: CAKI-1 renal
SNB-75 CNS = system: SNB-75 CNS
NCI-H226 lung = system: NCI-H226 lung
K-562 leukemia = system: K-562 leukemia
SNB-19 CNS = system: SNB-19 CNS
IGROV1 ovarian = system: IGROV1 ovarian
HCC-2998 colon = system: HCC-2998 colon
NCI-H460 lung = system: NCI-H460 lung
UACC-257 melanoma = system: UACC-257 melanoma
HOP-92 NSCLC = system: HOP-92 NSCLC
EKVX NSCLC = system: EKVX NSCLC
SF-268 CNS = system: SF-268 CNS
A549 NSCLC = system: A549 NSCLC
PC-3 prostate = system: PC-3 prostate
MALME-3M melanoma = system: MALME-3M melanoma
ACHN renal = system: ACHN renal
UACC-62 melanoma = system: UACC-62 melanoma
HOP-62 NSCLC = system: HOP-62 NSCLC
NCI/ADR-RES ovarian = system: NCI/ADR-RES ovarian
SN12C renal = system: SN12C renal
A498 renal = system: A498 renal
HT29 colon = system: HT29 colon
RPMI-8226 leukemia = system: RPMI-8226 leukemia
BT-549 breast = system: BT-549 breast
CCRF-CEM leukemia = system: CCRF-CEM leukemia
MDA-MB-435 = system: MDA-MB-435
U251 CNS = system: U251 CNS
T-47D breast = system: T-47D breast
LOX IMVI melanoma = system: LOX IMVI melanoma

Work on `COC1(C(=O)N2Cc3nc(Cl)nc(N[C@H](C)c4cc(N)cc(C(F)(F)F)c4)c3C2)CCOCC1` yielded a GI50 (MDA-MB-231 breast) of 15.9 µM, a TGI (MDA-MB-231 breast) of 31.3 µM and a GI50 (SW-620 colon) of 24.8 µM. For the same compound, the TGI (SW-620 colon) was greater than 86.3 µM, the GI50 (HS 578T breast) was 17.7 µM and the TGI (HS 578T breast) was 80.3 µM. It also gave a GI50 (SK-MEL-5 melanoma) of 14.8 µM, a TGI (SK-MEL-5 melanoma) of 28.1 µM and a GI50 (NCI-H23 lung) of 19.7 µM. The TGI (NCI-H23 lung) was 72.4 µM, the GI50 (HCT-15 colon) was 23.2 µM and the TGI (HCT-15 colon) was greater than 76.3 µM. The GI50 (OVCAR-5 ovarian) was 18.2 µM, the TGI (OVCAR-5 ovarian) was 58 µM and the GI50 (SK-MEL-2 melanoma) was 16.7 µM. It also gave a TGI (SK-MEL-2 melanoma) of 33.6 µM, a GI50 (COLO 205 colon) of 18 µM and a TGI (COLO 205 colon) of 33.8 µM. It also gave a GI50 (MCF7 breast) of 17.5 µM, a TGI (MCF7 breast) of 49.3 µM and a GI50 (OVCAR-4 ovarian) of 19.8 µM. For the same compound, the TGI (OVCAR-4 ovarian) was 99.2 µM, the GI50 (SK-MEL-28 melanoma) was 16.2 µM and the TGI (SK-MEL-28 melanoma) was 30.9 µM. It also gave a GI50 (DU-145 prostate) of 31.7 µM, a TGI (DU-145 prostate) greater than 100 µM and a GI50 (SF-539 CNS) of 15.2 µM. It also gave a TGI (SF-539 CNS) of 29.8 µM, a GI50 (786-0 renal) of 18.7 µM and a TGI (786-0 renal) of 68.4 µM. It also gave a GI50 (SF-295 CNS) of 12.5 µM, a TGI (SF-295 CNS) of 26.2 µM and a GI50 (HL-60(TB) leukemia) of 22.6 µM. It also gave a TGI (HL-60(TB) leukemia) of 66.4 µM, a GI50 (TK-10 renal) of 1.23 µM and a TGI (TK-10 renal) of 45.8 µM. It also gave a GI50 (KM12 colon) of 13.6 µM, a TGI (KM12 colon) of 54.3 µM and a GI50 (SR leukemia) of 2.92 µM. It also gave a TGI (SR leukemia) of 48.8 µM, a GI50 (OVCAR-8 ovarian) of 23.1 µM and a TGI (OVCAR-8 ovarian) greater than 88.5 µM. For the same compound, the GI50 (RXF 393 renal) was 15.8 µM, the TGI (RXF 393 renal) was 43.6 µM and the GI50 (UO-31 renal) was 7.63 µM. For the same compound, the TGI (UO-31 renal) was 43.3 µM, the GI50 (HCT-116 colon) was 15.2 µM and the TGI (HCT-116 colon) was 30.4 µM. The GI50 (SK-OV-3 ovarian) was 17.7 µM, the TGI (SK-OV-3 ovarian) was 58.5 µM and the GI50 (M14 melanoma) was 17.8 µM. The TGI (M14 melanoma) was 40.6 µM, the GI50 (MOLT-4 leukemia) was 9.05 µM and the TGI (MOLT-4 leukemia) was 50.5 µM. For the same compound, the GI50 (NCI-H522 lung) was 9.23 µM, the TGI (NCI-H522 lung) was 55.2 µM and the GI50 (OVCAR-3 ovarian) was 16.3 µM. The TGI (OVCAR-3 ovarian) was 49 µM, the GI50 (CAKI-1 renal) was 25.4 µM and the TGI (CAKI-1 renal) was greater than 100 µM. The GI50 (SNB-75 CNS) was 17.4 µM, the TGI (SNB-75 CNS) was 62.9 µM and the GI50 (NCI-H226 lung) was 18.2 µM. The TGI (NCI-H226 lung) was 72.2 µM, the GI50 (K-562 leukemia) was 0.888 µM and the TGI (K-562 leukemia) was greater than 68.4 µM. For the same compound, the GI50 (SNB-19 CNS) was 14.5 µM, the TGI (SNB-19 CNS) was 72 µM and the GI50 (IGROV1 ovarian) was 13.5 µM. The TGI (IGROV1 ovarian) was 43.8 µM, the GI50 (HCC-2998 colon) was 20.8 µM and the TGI (HCC-2998 colon) was 59.2 µM. The GI50 (NCI-H460 lung) was 18.7 µM, the TGI (NCI-H460 lung) was 40.9 µM and the GI50 (UACC-257 melanoma) was 17.2 µM. It also gave a TGI (UACC-257 melanoma) of 37.3 µM, a GI50 (HOP-92 NSCLC) of 0.356 µM and a TGI (HOP-92 NSCLC) of 21 µM. The GI50 (EKVX NSCLC) was 14.1 µM, the TGI (EKVX NSCLC) was greater than 100 µM and the GI50 (SF-268 CNS) was 13.7 µM. For the same compound, the TGI (SF-268 CNS) was 49.1 µM, the GI50 (A549 NSCLC) was 21.1 µM and the TGI (A549 NSCLC) was greater than 100 µM. For the same compound, the GI50 (PC-3 prostate) was 21.3 µM, the TGI (PC-3 prostate) was greater than 91.8 µM and the GI50 (MALME-3M melanoma) was 17.3 µM. For the same compound, the TGI (MALME-3M melanoma) was 43 µM, the GI50 (ACHN renal) was 18.5 µM and the TGI (ACHN renal) was 71.4 µM. The GI50 (UACC-62 melanoma) was 13.8 µM, the TGI (UACC-62 melanoma) was 27.7 µM and the GI50 (HOP-62 NSCLC) was 15.2 µM. For the same compound, the TGI (HOP-62 NSCLC) was 36 µM, the GI50 (NCI/ADR-RES ovarian) was 24.6 µM and the TGI (NCI/ADR-RES ovarian) was greater than 94.5 µM. It also gave a GI50 (SN12C renal) of 12.4 µM, a TGI (SN12C renal) of 53.4 µM and a GI50 (A498 renal) of 11.2 µM. For the same compound, the TGI (A498 renal) was 58.6 µM, the GI50 (HT29 colon) was 18 µM and the TGI (HT29 colon) was 36.6 µM. For the same compound, the GI50 (RPMI-8226 leukemia) was 22.2 µM, the TGI (RPMI-8226 leukemia) was greater than 83.2 µM and the GI50 (BT-549 breast) was 12.4 µM. For the same compound, the TGI (BT-549 breast) was 28.2 µM, the GI50 (CCRF-CEM leukemia) was 31.3 µM and the TGI (CCRF-CEM leukemia) was 99 µM. The GI50 (MDA-MB-435) was 18.6 µM, the TGI (MDA-MB-435) was 41.4 µM and the GI50 (U251 CNS) was 14.4 µM. It also gave a TGI (U251 CNS) of 37.7 µM, a GI50 (T-47D breast) of 20.8 µM and a TGI (T-47D breast) of 83.5 µM. For the same compound, the GI50 (LOX IMVI melanoma) was 15.6 µM and the TGI (LOX IMVI melanoma) was 29.2 µM.
